The text below walks through data of PubChem BioAssay (NCI).

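Five concentrations, 48 hours, 96-well plates. TGI marks complete inhibition of growth.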

Common to all, as to assay: growth of human tumour cells (NCI), 48 h
The test system of assay [1] is KM20L2 colon.
The test system of assay [2] is M19-MEL melanoma.
Assay [3] relates to LXFL 529 NSCLC.
Assay [4] relates to SNB-78 CNS.
Assay [5] has as its system RXF-631 renal.
Assay [6] deals with DMS 273 small cell lung.
Assay [7] deals with XF 498 CNS.

On to `COC(=O)C1=C(C)N2CCCOC2(C)C(C(=O)OC)C1c1cccc(Cl)c1` (stereo unspecified), for which the TGI in assay [1] amounted to 64.4 µM; in assay [2], 54.3 µM; in assay [3] it was 74.6 µM.

As to `CC(C)(C)C#C[P+](c1ccccc1)(c1ccccc1)c1ccccc1`, the TGI in assay [1] was found to be 1.19 µM; in assay [2], 1.14 µM; in assay [3], 0.67 µM; in assay [4], 1.35 µM; in assay [5], 2.63 µM.

On to `Cc1cn(C2CC(O)C(CO)C2C)c(=O)[nH]c1=O` (stereo unspecified), for which the TGI in assay [1], in assay [2], in assay [6], in assay [3], in assay [4] and in assay [7] was above 100 µM in each case. The TGI in assay [5] is above 100 µM.

On to `C=Nc1ccc([N+](=O)[O-])cc1`, for which the TGI in assay [1], in assay [2], in assay [6], in assay [3], in assay [4] and in assay [7] was above 100 µM each time.
